Patent publication US20120100990A1, “4 -AMINOPICOLINATES AND THEIR USE AS HERBICIDES” (SYNGENTA CROP PROTECTION LLC, priority 2009, published 2012)

Experiments:
Assay type in all cases: in vivo
Solanum nigrum (SOLNI) [1] = test: Pre-emergence biological efficacy, glasshouse pot test; conditions: 312 h, 1,000 g/ha, evaluated after 13 days, 100=total damage, 0=no damage, read-out: Percentage damage caused to weed species, pre-emergence, SOLNI
In short: (§1)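 Damage was rated 13 days after treatment on a 0–100 scale, where 100 is total plant kill. Pots sown one day earlier were sprayed with 1000 or 250 g/ha test compound in aqueous acetone/water (50:50) containing 0.5% Tween 20, and grown at 24/16 °C with 14 h light, 65% humidity and twice-daily watering.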

Setaria faberi (SETFA) [2] = test: as above; conditions: 312 h, 1,000 g/ha, evaluated after 13 days, 100=total damage, 0=no damage, read-out: Percentage damage caused to weed species, pre-emergence, SETFA
In short: as §1

[3] = system: Ipomea hederaceae (IPOHE); test: as above; conditions: Ipomoea hederacea, 312 h, 1,000 g/ha, evaluated after 13 days, 100=total damage, 0=no damage, read-out: Percentage damage caused to weed species, pre-emergence, IPOHE
In short: as §1

[4] = system: Echinochloa crus-galli (ECHCG); test: as above; conditions: 312 h, 1,000 g/ha, evaluated after 13 days, 100=total damage, 0=no damage, read-out: Percentage damage caused to weed species, pre-emergence, ECHCG
In short: as §1

[5] = system: Amaranthus retroflexus (AMARE); test: as above; conditions: 312 h, 1,000 g/ha, evaluated after 13 days, 100=total damage, 0=no damage, read-out: Percentage damage caused to weed species, pre-emergence, AMARE
In short: as §1

[6] = system: Alopecurus myosuroides (ALOMY); test: as above; conditions: 312 h, 1,000 g/ha, evaluated after 13 days, 100=total damage, 0=no damage, read-out: Percentage damage caused to weed species, pre-emergence, ALOMY
In short: as §1

Solanum nigrum (SOLNI) [7] = test: Post-emergence biological efficacy, glasshouse pot test; conditions: 312 h, 1,000 g/ha, evaluated after 13 days, 100=total damage, 0=no damage, read-out: Percentage damage caused to weed species, post-emergence, SOLNI
In short: (§2)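 Damage, rated 0 (none) to 100 (total) at 13 days after treatment, followed post-emergence spraying at 250 or 1000 g/ha in acetone/water with 0.5% Tween 20. Plants had been raised 8 days beforehand under glasshouse conditions of 24/16 °C day/night, 14 h light and 65% humidity.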

Setaria faberi (SETFA) [8] = test: as above; conditions: 312 h, 1,000 g/ha, evaluated after 13 days, 100=total damage, 0=no damage, read-out: Percentage damage caused to weed species, post-emergence, SETFA
In short: as §2

[9] = system: Ipomea hederaceae (IPOHE); test: as above; conditions: Ipomoea hederacea, 312 h, 1,000 g/ha, evaluated after 13 days, 100=total damage, 0=no damage, read-out: Percentage damage caused to weed species, post-emergence, IPOHE
In short: as §2

[10] = system: Echinochloa crus-galli (ECHCG); test: as above; conditions: 312 h, 1,000 g/ha, evaluated after 13 days, 100=total damage, 0=no damage, read-out: Percentage damage caused to weed species, post-emergence, ECHCG
In short: as §2

[11] = system: Amaranthus retroflexus (AMARE); test: as above; conditions: 312 h, 1,000 g/ha, evaluated after 13 days, 100=total damage, 0=no damage, read-out: Percentage damage caused to weed species, post-emergence, AMARE
In short: as §2

[12] = system: Alopecurus myosuroides (ALOMY); test: as above; conditions: 312 h, 1,000 g/ha, evaluated after 13 days, 100=total damage, 0=no damage, read-out: Percentage damage caused to weed species, post-emergence, ALOMY
In short: as §2

SMILES | pest or weed control at 1000 g/ha (Solanum nigrum (SOLNI) [1]) [%] | pest or weed control at 1000 g/ha (Setaria faberi (SETFA) [2]) [%] | pest or weed control at 1000 g/ha [3] [%] | pest or weed control at 1000 g/ha [4] [%] | pest or weed control at 1000 g/ha [5] [%] | pest or weed control at 1000 g/ha [6] [%] | pest or weed control at 1000 g/ha (Solanum nigrum (SOLNI) [7]) [%] | pest or weed control at 1000 g/ha (Setaria faberi (SETFA) [8]) [%] | pest or weed control at 1000 g/ha [9] [%] | pest or weed control at 1000 g/ha [10] [%] | pest or weed control at 1000 g/ha [11] [%] | pest or weed control at 1000 g/ha [12] [%]
COC(=O)c1nc(Cl)cc(N(CCO)Cc2ccco2)c1Cl [Compound 66-2, 3,6-Dichloro-4-[N-(furan-2-ylmethyl)-N-(2-hydroxyethyl)-amino]-pyridine-2-carboxylic acid methyl ester] | 100 | 70 | 100 | 50 | 100 | 80 | 80 | 0 | 60 | 20 | 100 | 20
COC(=O)c1nc(Cl)cc(NCC2CCCCC2)c1Cl [Compound 67-2, 4- Cyclohexylmethyl amino-3,6-dichloro-pyridine-2-carboxylic acid methyl ester] | 90 | 60 | 80 | 10 | 100 | 20 | 100 | 20 | 70 | 20 | 100 | 30
C=Cc1c(NCC2CCCCC2)cc(Cl)nc1C(=O)OC [Compound 67-12, 6-Chloro-4-cyclohexylmeth-ylamino-3-ethenyl-pyridine-2-carboxylic acid methyl ester] | 80 | 0 | 60 | 10 | 100 | 10 | 80 | 20 | 60 | 20 | 90 | 10
COC(=O)c1nc(Cl)cc(NC[C@@H]2CCCC[C@H]2O)c1Cl [Compound 68-2, 3,6-Dichloro-pyridine-4-[trans-(2-hydroxycyclohexyl-methyl)-amino]-2-carboxylic acid methyl ester] | 100 | 80 | 90 | 0 | 100 | 70 | 100 | 70 | 70 | 20 | 100 | 40
COC(=O)c1nc(Cl)cc(NCC2CCCCCCC2)c1Cl [Compound 69-2, 4-Cyclooctylmethyl-amino-3,6-dichloro-pyridine-2-carboxylic acid methyl ester] | 100 | 10 | 80 | 10 | 90 | 20 | 90 | 0 | 70 | 0 | 100 | 10
COC(=O)c1nc(Cl)cc(NCC2CCCO2)c1Cl (stereo not drawn) [Compound 70-2, 3,6-Dichloro-4-(tetrahydrofuran-2-ylmethylamino)-pyridine-2-carboxylic acid methyl ester] | 100 | 80 | 70 | 20 | 100 | 30 | 100 | 60 | 70 | 30 | 100 | 40
CCN1CCCC1CNc1cc(Cl)nc(C(=O)OC)c1Cl (stereo not drawn) [Compound 71-2, 3,6-Dichloro-4-[(N-ethyl-pyrrolidin-2-ylmethyl)-amino]-pyridine-2-carboxylic acid methyl ester] | 100 | 80 | 100 | 20 | 100 | 70 | 100 | 50 | 60 | 20 | 100 | 20
COC(=O)c1nc(Cl)cc(NCc2ccccc2Br)c1Cl [Compound 72-2, 4-[(2-Bromophenyl-methyl)-amino]-3,6-dichloro-pyridine-2-carboxylic acid methyl ester] | 100 | 30 | 80 | 10 | 90 | 30 | 100 | 70 | 70 | 10 | 100 | 20
COC(=O)c1nc(Cl)cc(NCc2ccccc2OC)c1Cl [Compound 73-2, 3,6-Dichloro-4-[(2-methoxyphenyl-methyl)-amino]-pyridine-2-carboxylic acid methyl ester] | 100 | 80 | 100 | 20 | 100 | 50 | 90 | 80 | 70 | 40 | 100 | 40
C=Cc1c(NCc2ccccc2OC)cc(Cl)nc1C(=O)OC [Compound 73-12, 6-Chloro-3-ethenyl-4-[(2-methoxyphenyl-methyl)-amino]-pyridine-2-carboxylic acid methyl ester] | 100 | 80 | 70 | 20 | 100 | 70 | 90 | 80 | 50 | 20 | 100 | 20
COC(=O)c1nc(Cl)cc(NCc2ccccc2C(F)(F)F)c1Cl [Compound 74-2, 3,6-Dichloro-4-[(2-trifluoromethyl-phenylmethyl)-amino]-pyridine-2-carboxylic acid methyl ester] | 90 | 10 | 70 | 0 | 90 | 0 | 100 | 0 | 60 | 0 | 100 | 10
